Structures are written as SMILES. “And” between values parts separate entries of the source, which are not always exact repeats. Equal values may be shown once. “Also recorded” adds a separate entry of the source.

One assay has as its system mice (C57BI/6J). Put plainly: Photothrombotic cerebral cortex infarct model in mice. It is filed as in vivo, mouse. The following applies: for Infarct volume, 5 DPI carrier versus 5 DPI drug (ANOVA, Holm-Sidak): Nx-2 p=0.025, Nx-1 p=0.886. On the procedure: All in vivo experiments were performed with University of New South Wales (UNSW) Sydney Animal Care and Ethics Committee approval. To undertake this randomized blinded photothrombotic study, male and female mice (C57BI/6J) aged 2-4 months (20-30 g) were anaesthetised with a 4% isoflurane induction (on O2) and fixed onto a stereotaxic frame. Anaesthesia was maintained at 1.5% isoflurane for the rest of the procedure. The animals were constantly monitored for their heart rate and oxygen saturation with their body temperature maintained at 37±1° C. (Kent Scientific Physiology Suite system). An ophthalmological ointment was applied to the eyes for corneal protection. Analgesia Temgesic (Buprenorphine; 0.15 mg/kg; 0.32 mg/ml) was administered intramuscularly, using a 27G needle. The skull was shaved over the target cerebral cortex region and a local anaesthetic Lignocaine was injected subcutaneously (27 needle; 20 mg/ml). A midline incision was made through the skin to expose the cranium and the periosteum was removed. The surface of the cranium was made lucid by applying ophthalmological gel over the surface. The fibre-optic coupled green LED (532 nm; ˜1 mW; 1 mm diameter light guide, Thorlabs, USA) was placed over the left hemisphere of cerebral cortex (3 mm rostral to lambda; 2 mm from the midline) followed by injection of photosensitising dye Rose Bengal (50 mg/kg) with a 29G needle via the tail vein. The skull was illuminated for 5 minutes to trigger the localized thrombus formation at the target region of cerebral cortex. The skin was then sutured and the isoflurane anaesthesia was discontinued, while providing 100% oxygen until the mice regained consciousness. Mice were injected with saline (intraperitoneal, 250 μl) during the recovery phase for rehydration. The mouse was maintained on the rectal probe feedback controlled heating pad in a recovery cage until ambulatory (˜20 min) and then the animal was placed back in its cage with food and water. The mice were monitored for signs of post-operative stress on a daily basis for the five day treatment period. Mice were administered with either the carrier or Nx-2 drug (100 mg/kg) via a rectal suppository, 45 minutes after the photothrombotic lesion, and then every 24 hours for a further 4 days in the conscious mouse. At 5 days post-infarct, the mice were euthanized via an intraperitoneal injection of Lethabarb (100 mg/kg; 27 G needle), following which the mice were transcardially perfused with 4% paraformaldehyde (PFA) in phosphate buffer (0.1 M, pH 7.4). The brains were dissected out and post-fixed for overnight in 4% PFA at 4° C. The brains were cryoprotected in 10% and 30% sucrose made in 0.01 M PBS solutions overnight respectively. Images of the surface infarct were captured on a dissecting microscope. Following cryoprotection, the brains were sectioned coronally (50 μm thick) and kept in 0.01 M PBS until they were imaged under the darkfield microscope. The Image J (NIH) software was used to measure the surface area of the infarct and darkfield sections enabled measurement of the cross sectional area of the infarct (Image J, NIH). Total infarct volume was quantified by summation of areas of infarct from darkfield sections integrated with thickness of the tissue. Descriptive statistics, ANOVA and t-tests were performed to detect the significance difference among the treatment groups using Sigmaplot (Systat software, version 12.0) after establishing normal distribution of the data (alpha=0.05).
The skull of the mouse (C57BI/6J strain) was exposed to enable fibre optic illumination of a region of the cerebral cortex with green light (532 nm) to trigger localized thrombus formation due to tail vein injection of the photo sensitizing dye Rose Bengal. Macroscopic representation of the photo-thrombotic infarct was assessed 5 days post injury in mice treated with carrier only or with Nx-1 drug. […]

Assay [1] relates to rHEK293-GCaMP5g cells. Put plainly: Carbachol-induced Ca2+ store release in rHEK293-GCaMP5g cells (FlexStation 3). In kind it is cell-based, human. The following applies: for EC50: carbachol 100 μM in Ca2+ free solution, areas under the curve (RFU) normalised to DMSO control, read-out: EC50, inhibition of Ca2+ store release; for Block of carbachol-induced Ca2+ store release: compound 4 μM, carbachol 100 μM, Ca2+ free solution. An excerpt: (§1) Untransfected human embryonic kidney 293 (HEK293) cells are a model for neuronal cell Ca^2+ signalling via Gq type G protein-coupled receptors (such as the metabotropic glutamate receptors). […] The current study utilised a custom-developed recombinant human embryonic kidney 293 (rHEK293) cell line stably over-expressing a genetically encoded Ca^2+ reporter (GCaMP5g—after [Akerboom J et al., 2012 Journal of Neuroscience, 32(40): 13819-13840]). This enabled imaging of the Ca^2+ store release under conditions where Carbachol (muscarinic receptor agonist)—induced Ca^2+ store release via the endogenous M3 muscarinic receptor—was delivered in a solution (in mM: NaCl 145; KCl 5.8; MgCl2 0.9; HEPES 10, NaH2PO4 0.7, d-glucose 5.6; pH 7.2-7.4, osmolarity 310-330 mOsm/L), lacking Ca^2+, to the wells containing the adherent rHEK293-GCaMP5g cells, using a FlexStation 3 multi-modal microplate reader (Molecular Devices). This paradigm, with sustained Carbachol presentation, results in extrusion of the cytosolic Ca^2+ from the cell via plasma membrane Ca^2+ pumps, alongside Ca^2+ store depletion. When Ca^2+ is then added to the media, a Ca^2+ signal is detected that reflects Ca^2+ entry into the cells via Ca^2+ entry pathways [Elliott, 2001 Cell calcium, 30, 73-93].
(§2) This study investigated the effect of Nx-1 and Nx-2 on the Ca^2+ re-entry in the rHEK293-GCaMP5g cells using the FlexStation 3 plate reader in ‘Flex Read’ configuration (485 nm excitation, 510 nm emission, 6 flashes per sample, medium detector sensitivity, 37° C., 780 sample points at 1.54 s intervals). The cells were seeded into the 96 well plates in DMEM media with 10% foetal calf serum supplement. The cells approached confluence at ˜66 hours at which stage the cells were washed with the Ca^2+-free solution, and then the drug was added in Ca^2+ free solution (80 μl) and the plate was then placed into the FlexStation plate reader (37° C.) and rested for 30 minutes prior to imaging. The Carbachol (final concentration 100 μM in Ca^2+ free solution; drug at specified concentration) was added 180 seconds after the start of the Ca^2+ imaging read. The Ca^2+ entry was triggered at 480 seconds by adding 10 μl of Carbachol in Ca^2+ solution with the drug (final concentrations: 100 uM Carbachol, Ca^2+1.3 mM; drug at specified concentration). The Ca^2+ imaging proceeded for a total duration of 20 minutes. Controls utilized DMSO carrier at corresponding dilution used with the drug at specified concentrations. Data analysis was based on the areas under the curves (RFU—relative fluorescence Units), with statistical analysis using Sigmaplot (Systat software, version 12.0) and graphics produced using Graphpad Prism (Graphpad Software, version 7.02).

Assay [2] has as its system rHEK293-GCaMP5g cells. The assay is described as follows: Ca2+ re-entry in rHEK293-GCaMP5g cells after Ca2+ store depletion (FlexStation 3). It is filed as cell-based, human. The following applies: carbachol 100 μM; for EC50: Ca2+ 1.3 mM restored, areas under the curve (RFU) normalised to DMSO control, read-out: EC50, inhibition of Ca2+ re-entry; for Block of Ca2+ re-entry: compound 4 μM, 1.3 mM Ca2+ restored.
From the text: as §1, §2

With `COc1ccc(C2c3ccc(O)cc3OCC2c2ccc(O)cc2)cc1` (racemic) [Nx-2], the “Infarct volume, 5 DPI carrier versus 5 DPI drug (ANOVA, Holm-Sidak)” value in the assay with mice (C57BI/6J) (100 mg/kg) is “significant difference”. Besides, in the assay with mice (C57BI/6J) (100 mg/kg, p=0.064), the “Surface infarct area, 5 DPI drug versus core infarct (2 HPI control)” value is reported as “not significantly different”. The “Neuroprotection, share of the penumbra expansion (surface infarct area)” value in the assay on mice (C57BI/6J) (5 DPI, 100 mg/kg, relative to 2 HPI core infarct and 5 DPI carrier) was 50%. Further, in the assay on mice (C57BI/6J) (5 days post infarct, 100 mg/kg rectal suppository 45 min after lesion then every 24 h for 4 days, individual mice), the infarct surface area is 6.56 mm^2 (2×) and 8.99 mm^2 and 8.19 mm^2 and 5.79 mm^2 and 6.70 mm^2. Further, in the assay on mice (C57BI/6J) (Table 3, 5 days post infarct, Nx-2 100 mg/kg rectal suppository, individual mice), the infarct volume is 13.29 mm^3 and 10.34 mm^3 and 14.65 mm^3 and 12.02 mm^3 and 10.51 mm^3 and 13.76 mm^3. Besides, in the assay on rHEK293-GCaMP5g cells [1], the EC50 is ~600 nM and ~700 nM; the “Block of carbachol-induced Ca2+ store release” value is reported as “Block; also recorded: virtually blocked”. Also, in the assay with rHEK293-GCaMP5g cells [2], the half-maximal effective concentration (EC50) was ~600 nM and ~700 nM; the “Block of Ca2+ re-entry” value is reported as “Block”.

On to `Oc1ccc(C2=Cc3ccc(O)cc3OC2)cc1` [Nx-1], for which, in the assay on mice (C57BI/6J) (100 mg/kg), the “Infarct volume, 5 DPI carrier versus 5 DPI drug (ANOVA, Holm-Sidak)” value was “not significantly different”. Besides, the infarct volume in the assay with mice (C57BI/6J) (Table 5, 5 days post infarct, Nx-1 100 mg/kg, individual mice) was 11.80 mm^3 and 18.94 mm^3 and 14.16 mm^3 and 16.84 mm^3; with mice (C57BI/6J) (Table 7, 5 days post infarct, Nx-1 100 mg/kg, individual mice) it was 11.80 mm^3 and 18.94 mm^3 and 14.16 mm^3 and 16.84 mm^3. The EC50 in the assay with rHEK293-GCaMP5g cells [1] (Homo sapiens) was about 1500 nM; with rHEK293-GCaMP5g cells [1], about 2000 nM; in the assay on rHEK293-GCaMP5g cells [2] (Homo sapiens) it was about 1500 nM; in the assay on rHEK293-GCaMP5g cells [2], about 2000 nM. In the assay with rHEK293-GCaMP5g cells [1], the “Block of carbachol-induced Ca2+ store release” value was “block; also recorded: virtually blocked”. In addition, the “Block of Ca2+ re-entry” value in the assay with rHEK293-GCaMP5g cells [2] was “blocked”.

(Values after patent publication US20200215025A1, “TREATMENT OF EXCITOTOXICITY” (priority 2017, published 2020).)
